Literature values, collected in patent publication US7303775B1, “Carbohydrate ruminant feed energy supplement and method” (Penn State Research Foundation, priority 2003, dated 2007).

How the values were obtained:
[1] = system: glucagon; details: oral, same dose, humans
[2] = system: rat liver; details: compared with glucose
[3] = system: insulin; details: compared with sucrose or glucose

SMILES | effect on glucagon [1] | rate of conversion to fat by rat liver [2] | potency as insulin secretagogue [3]
OC[C@H]1O[C@@](CO)(O[C@H]2O[C@H](CO)[C@@H](O)[C@H](O)[C@H]2O)[C@@H](O)[C@@H]1O [sucrose, reference compound] | decline |  | 
O=C(CO)[C@@H](O)[C@H](O)[C@H](O)CO [fructose] | did not | much higher rate | less potent
